Measurements taken from patent US8536193B2, “Inhibitors of AKT activity” (Merck Sharp & Dohme Corp., priority 2008, dated 2013).

How the values were obtained:
Akt1 kinase = Akt1 kinase (Homo sapiens (Human), UniProt P31749); test: Akt kinase assay (HTRF, GSK-derived biotinylated peptide substrate); assay type: biochemical
Experimental: (§1) Activated Akt isoforms and pleckstrin homology domain deletion constructs were assayed utilizing a GSK-derived biotinylated peptide substrate. The extent of peptide phosphorylation was determined by Homogeneous Time Resolved Fluorescence (HTRF) using a lanthanide chelate (Lance)-coupled monoclonal antibody specific for the phosphopeptide in combination with a streptavidin-linked allophycocyanin (SA-APC) fluorophore which will bind to the biotin moiety on the peptide. When the Lance and APC are in proximity (i.e. bound to the same phosphopeptide molecule), a non-radiative energy transfer takes place from the Lance to the APC, followed by emission of light from APC at 665 nm.
(§2) Materials Required for the Assay:
(§3) A. Activated Akt isozyme or pleckstrin homology domain deleted construct
(§4) B. Akt peptide substrate: GSK3α (S21) Peptide #3928 biotin-[…] (SEQ.ID.NO.:15), Macromolecular Resources.
(§5) C. Lance labeled anti-phospho GSK3α monoclonal antibody (Cell Signaling Technology, clone #27).
(§6) D. SA-APC (Prozyme catalog no. PJ25S lot #896067).
(§7) E. Microfluor®B U Bottom Microtiter Plates (Dynex Technologies, Catalog no. 7205).
(§8) F. Discovery® HTRF Microplate Analyzer, Packard Instrument Company.
(§9) G. 100× Protease Inhibitor Cocktail (PIC): 1 mg/mL benzamidine, 0.5 mg/mL pepstatin, 0.5 mg/mL leupeptin, 0.5 mg/mL aprotinin.
(§10) H. 10× Assay Buffer: 500 mM HEPES, pH 7.5, 1% PEG, […], 1 mM EGTA, 1% BSA, 20 mM θ-Glycerol phosphate.
(§11) I. Quench Buffer: 50 mM HEPES pH 7.3, 16.6 mM EDTA, 0.1% BSA, 0.1% Triton X-100, 0.17 nM Lance labeled monoclonal antibody clone #27, 0.0067 mg/mL SA-APC
(§12) J. ATP/MgCl2 working solution: 1× Assay buffer, 1 mM DTT, 1×PIC, 125 mM KCl, 5% Glycerol, 25 mM MgCl2, 375 μM ATP
(§13) K. Enzyme working solution: 1× Assay buffer, 1 mM DTT, 1× PIC, 5% Glycerol, active Akt. The final enzyme concentrations were selected so that the assay was in a linear response range.
(§14) L. Peptide working solution: 1× Assay buffer, 1 mM DTT, 1× PIC, 5% Glycerol, 2 μM GSK3 biotinylated peptide #3928
(§15) The reaction is assembled by adding 16 μl, of the ATP/MgCl2 working solution to the appropriate wells of a 96-well microtiter plate. Inhibitor or vehicle (1.0 μL) is added followed by 10 μL of peptide working solution. The reaction is started by adding 13 μL of the enzyme working solution and mixing. The reaction is allowed to proceed for 50 min and then stopped by the addition of 60 μl, HTRF quench buffer. The stopped reactions were incubated at room temperature for at least 30 min and then read on the Discovery instrument.

Akt2 kinase = Akt2 kinase (Homo sapiens (Human), UniProt P31751); test: as above; assay type: biochemical
Akt2 kinase, sequence (P31751 whole entry): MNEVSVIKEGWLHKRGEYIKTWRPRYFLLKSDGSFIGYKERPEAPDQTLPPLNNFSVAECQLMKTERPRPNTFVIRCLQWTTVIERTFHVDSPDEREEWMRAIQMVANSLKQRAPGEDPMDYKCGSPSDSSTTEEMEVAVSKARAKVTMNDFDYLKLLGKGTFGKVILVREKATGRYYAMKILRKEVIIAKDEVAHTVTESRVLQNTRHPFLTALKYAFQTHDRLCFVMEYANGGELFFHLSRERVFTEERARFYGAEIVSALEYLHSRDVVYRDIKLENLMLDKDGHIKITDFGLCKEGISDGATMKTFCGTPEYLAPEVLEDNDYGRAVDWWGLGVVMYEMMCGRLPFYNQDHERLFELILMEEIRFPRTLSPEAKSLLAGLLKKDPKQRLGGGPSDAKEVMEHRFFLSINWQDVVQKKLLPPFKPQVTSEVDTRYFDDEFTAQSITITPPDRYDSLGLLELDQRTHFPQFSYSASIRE
Experimental: as §1, §2, §3, §4, §5, §6, §7, §8, §9, §10, §11, §12, §13, §14, §15

Akt1 kinase, sequence (P31749 whole entry, the tested form may be a part, canonical isoform): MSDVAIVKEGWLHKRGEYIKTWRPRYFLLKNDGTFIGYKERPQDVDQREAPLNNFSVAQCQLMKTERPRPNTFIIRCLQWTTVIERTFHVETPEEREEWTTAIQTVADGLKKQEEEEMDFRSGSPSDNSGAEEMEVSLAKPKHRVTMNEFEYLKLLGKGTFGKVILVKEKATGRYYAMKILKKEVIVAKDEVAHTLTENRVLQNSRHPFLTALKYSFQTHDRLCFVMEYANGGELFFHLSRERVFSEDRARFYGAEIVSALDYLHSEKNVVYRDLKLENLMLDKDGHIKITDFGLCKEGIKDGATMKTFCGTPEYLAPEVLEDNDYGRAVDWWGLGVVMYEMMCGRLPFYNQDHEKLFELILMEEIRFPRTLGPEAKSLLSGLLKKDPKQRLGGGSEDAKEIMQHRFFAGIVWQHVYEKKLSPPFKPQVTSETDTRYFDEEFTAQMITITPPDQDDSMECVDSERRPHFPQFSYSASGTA

Structure (SMILES) | IC50 (Akt1 kinase) [nM] | IC50 (Akt2 kinase) [nM]
O=C(Cc1cccnc1)NC1(c2ccc(-c3nc4ccc5nnc(O)n5c4cc3-c3ccccc3)cc2)CCC1 [EXAMPLE 1-9, N-{1-[4-(1-hydroxy-8-phenyl[1,2,4]triazolo[4,3-a]-1,5-naphthylidin-7-yl)phenyl]cyclobutyl}-2-(3-pyridinyl)acetamide] | 39 | 200
NC1(c2ccc(-c3nc4ccc5nnc(-c6ccccc6)n5c4cc3-c3ccccc3)cc2)CCC1 [EXAMPLE 2-1, 1-[4-(1,8-diphenyl[1,2,4]triazolo[4,3-a]-1,5-naphthylidin-7-yl)phenyl]cyclobutanamine] | 2.3 | 32
Nc1nnc2ccc3nc(-c4ccc(C5(N)CCC5)cc4)c(-c4ccccc4)cc3n12 [EXAMPLE 3-1, 7-[4-(1-aminocyclobutyl)phenyl]-8-phenyl[1,2,4]triazolo[4,3-a]-1,5-naphthylidin-1-amine] | 6.1 | 24
Cc1nnc2ccc3nc(-c4ccc(C5(N)CCC5)cc4)c(-c4ccccc4)cc3n12 [EXAMPLE 4-1, 1-[4-(1-methyl-8-phenyl[1,2,4]triazolo[4,3-a]-1,5-naphthylidin-7-yl)phenyl]cyclobutanamine] | 8.2 | 50
NC1(c2ccc(-c3nc4ccc5nnc(-c6ccccc6)n5c4cc3-c3ccccc3)cc2)CC(F)(F)C1 [EXAMPLE 5-12, 1-[4-(1,8-diphenyl[1,2,4]triazolo[4,3-a]-1,5-naphthyridin-7-yl)phenyl]-3,3-difluorocyclobutanamine] | 10 | 140
CC1(O)CC(N)(c2ccc(-c3nc4ccc5nnc(-c6nnc[nH]6)n5c4cc3-c3ccccc3)cc2)C1 (stereo not drawn) [EXAMPLE 7-26, cis-3-amino-1-methyl-3-{4-[8-phenyl-1-(4H-1,2,4-triazol-3-yl)[1,2,4]triazolo[4,3-a][1,5]naphthyridin-7-yl]phenyl}cyclobutanol] | 0.7 | 12.6
C[C@]1(O)C[C@@](N)(c2ccc(-c3nc4ccc5nnc(C(F)F)n5c4cc3-c3ccccc3)cc2)C1 [EXAMPLE 10-4, trans-3-amino-3-{4-[1-(difluoromethyl)-8-phenyl[1,2,4]triazolo[4,3-a]-1,5-naphthyridin-7-yl]phenyl}-1-methylcyclobutanol] | 0.38 | 1.7
NC1(c2ccc(-c3nc4ccc5nnc(C(F)F)n5c4cc3-c3ccccc3)cc2)CC(O)(C2CC2)C1 (stereo not drawn) [EXAMPLE 10-5, trans-3-amino-1-cyclopropyl-3-{4-[1-(difluoromethyl)-8-phenyl-[1,2,4]triazolo[4,3-a]-1,5-naphthyridin-7-yl]phenyl}cyclobutanol] | 0.34 | 2.2
